The values that follow come from patent publication US8895585B2, “Nicotinamide derivative or salt thereof” (FUJIFILM Corporation, priority 2010, dated 2014).

Assay [1] relates to female Lewis rats. As to the kind of experiment: Rat type-II-collagen-induced arthritis. The assay is classed as in vivo. The conditions noted are these: oral administration at 10 mg/kg/day, once daily Day 7 to Day 20, hindlimb volume by plethysmometer, read-out: inhibition of hindlimb swelling compared with the control group. The protocol:
The compounds were tested to examine effects upon rat type II collagen arthritis. To 3 mg/mL bovine type II collagen solution (Collagen Gijutsu Kenshu-Kai) dissolved in 0.05 mol/L acetic acid, an equal amount of Freund's incomplete adjuvant (Wako Pure Chemical Industries, Ltd.) was added to prepare an emulsion. A portion of the emulsion (0.5 ml) was intradermally injected into the tail bases of 7- or 8-week-old female Lewis rats (Charles River Laboratories Japan, Inc.) (Day 0). Each rat was subjected to the same treatment on Day 7 after the initial inoculation so as to induce arthritis. Each test compound was orally administered from Day 7 to Day 20 once daily. At a given time during the period from Day 7 to Day 21, the rat hindlimb volume was determined using a plethysmometer (UGO BASILE), and the result was designated as an arthritis index. The following compound group inhibited hindlimb swelling by 85% or greater compared with the control group in the case of oral administration at 10 mg/kg/day: the compounds of Example 4-17, Example 6-49, Example 6-117, Example 6-157, Example 6-249, Example 6-322, Example 6-375, and Example 6-395.

The subject of assay [2] is male DBA/1J mice. As to the kind of experiment: Mouse type-II collagen-induced arthritis (prophylactic and therapeutic administration test). Type of assay: in vivo. The conditions noted are these: prophylactic administration test, once daily Day 21 to Day 34, 1 to 30 mg/kg/day. On the procedure: The compounds synthesized in Example 8-1, Example 4-17, and Example 6-49 were tested to examine effects upon mouse type II collagen arthritis. To 2 mg/mL bovine type II collagen solution (Koken Co., Ltd.) dissolved in 0.1 mol/L acetic acid, an equal amount of Freund's complete adjuvant (Wako Pure Chemical Industries, Ltd.) was added to prepare an emulsion. A portion of the emulsion was intradermally injected into the tail bases of 7- or 8-week-old male DBA/1J mice (Charles River Laboratories Japan, Inc.) at a dose of 0.2 mL per mouse (antigen amount: 0.2 mg/mouse) on Day 0 and Day 21 twice, so as to induce arthritis. Each compound was administered once daily from Day 21 to Day 34 in the prophylactic administration test (1 to 30 mg/kg/day), and administered once daily from Day 27 to Day 35 in the therapeutic administration test (25 mg/kg/day). Arthritis scores for four limbs for each mouse were determined starting from Day 21. Specifically, the total score of four limbs of a mouse was designated as the individual arthritis score (12 points at a maximum per mouse) based on the following: score 0: no change; score 1: swelling of 1 or 2 digit joints or mild swelling of the carpal region/the ankle region alone; score 2: swelling of joints of at least 3 digits or obvious swelling of the carpal region/the ankle region; and score 3: obvious swelling over forelimbs or hindlimbs.

For assay [3], the system named is THP-1 cells. As to the kind of experiment: TNFα generation assay. Type of assay: cell-based, human. Conditions: Table 22, read-out: IC50 in TNFα generation assay. Summed up: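 THP-1 cells differentiated to macrophage-like cells with 10 ng/ml IFN-γ for 2 days, preincubated with compound 30 min at room temperature, then cultured 7 h on plates coated with human IgG (10 μg/ml). Secreted TNFα measured by ELISA or AlphaLISA.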

The test system of assay [4] is THP-1 cells. As to the kind of experiment: Antibody-dependent phagocytosis assay. The assay is classed as cell-based. The conditions noted are these: Homo sapiens; THP-1 cells induced to differentiate with IFNγ; opsonized Escherichia coli; Table 23; read-out: IC50 upon phagocytosis inhibition. The protocol: THP-1 cells (2×10^5 cells/ml) which are human monocyte-like cell line were cultured in the presence of 10 ng/ml IFNγ for 2 days, so that the cells were induced to differentiate into macrophage-like cells. THP-1 cells that had been induced to differentiate were collected. The cells (5×10^4 cells/well) were reacted with test compounds having given concentrations at room temperature for 30 minutes. Thereafter, Escherichia coli (Life Technologies) labeled with a pH-sensitive dye (pHrodo) was subjected to opsonization using an anti-Escherichia coli antibody (Molecular Probes). Then, the resultant was added to THP-1 cells mixed with test compounds that had been induced to differentiate, followed by incubation at 37° C. for 3 hours. At the time of addition of opsonized Escherichia coli, cell-permeable fluorescent dye (Calcein AM) were simultaneously added thereto, and phagocytosis of opsonized Escherichia coli in viable cells was quantitatively determined using an IN Cell Analyzer.
In addition, the following are used in Table 23 to denote standards for evaluating IC50 upon phagocytosis inhibition. • A: Up to 1 μM • B: 1 to 3 μM • C: 3 to 6 μM

Assay [5] concerns the target T1, glutathione S-transferase (GST)-fused full-length human Syk protein (Homo sapiens, UniProt P43405).
T1 construct: (GST)-fused full-length human Syk protein; GST (glutathione S-transferase); purchased Carna Biosciences
As to the kind of experiment: Syk enzyme assay. Type of assay: biochemical. The conditions noted are these: Syk enzyme assay, Test Example 1; read-out: IC50 of Syk-inhibitory activity. Summed up: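 GST-tagged full-length human Syk (baculovirus) preincubated with compound 15 min at room temperature (pH 7.0, 10 mM MgCl2), then reacted 40 min with 0.4 μM biotinylated peptide substrate and 27 μM ATP (final). Phosphorylation read by HTRF (615/665 nm) after EDTA stop; IC50 reported.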

Where [6] appears, read: Homo sapiens, THP-1, THP-1 cells.

Where only a bound is given, the exact number is not on record here.

Turning to `NC(=O)c1cc(F)c(N[C@@H]2CCCC[C@@H]2N)nc1Nc1cnc(N2CCOCC2)c(F)c1` [Example 6-395, 6-(((1R,2S)-2-aminocyclohexyl)amino)-5-fluoro-2-((5-fluoro-6-morpholinopyridin-3-yl)amino)nicotinamide], the inhibition in vivo at 10 mg/kg/day in assay [1] is no less than 85%.
As to `CC(C)C[C@H](CN)Nc1nc(Nc2ccc3ncccc3c2)c(C(N)=O)cc1F` [Example 6-117, (R)-6-((1-amino-4-methylpentan-2-yl)amino)-5-fluoro-2-((quinolin-6-yl)amino)nicotinamide], the inhibition in vivo at 10 mg/kg/day in assay [1] is no less than 85%.
For the molecule `Cc1ccc(Nc2nc(N[C@@H]3CCCC[C@@H]3N)c(F)cc2C(N)=O)cn1` (relative stereo) [Example 4-17, 6-(cis-2-aminocyclohexylamino)-5-fluoro-2-(6-methylpyridin-3-ylamino)nicotinamide], the inhibition in vivo at 10 mg/kg/day in assay [1] was no less than 85%. In assay [2], the “advancement of arthritis after the onset (arthritis score)” value is “strongly inhibited”.
In the case of `CCn1ncc2cc(Nc3nc(N[C@@H](CN)CC(C)C)c(F)cc3C(N)=O)ccc21` [Example 6-322, (R)-6-((1-amino-4-methylpentan-2-yl)amino)-2-((1-ethyl-1H-indazol-5-yl)amino)-5-fluoronicotinamide], in assay [1], the inhibition in vivo at 10 mg/kg/day is no less than 85%.
Take `Cc1ncc(Nc2nc(N[C@@H]3CCCC[C@@H]3N)c(F)cc2C(N)=O)cc1-n1nccn1` [Example 6-375, 6-(((1R,2S)-2-aminocyclohexyl)amino)-5-fluoro-2-((6-methyl-5-(2H-1,2,3-triazol-2-yl)pyridin-3-yl)amino)nicotinamide]: the inhibition in vivo at 10 mg/kg/day in assay [1] was no less than 85%.
Turning to `NC(=O)c1cc(F)c(N[C@@H]2CCCC[C@@H]2N)nc1Nc1cncc(-n2nccn2)c1` [Example 004-042], the IC50 was 65 to 130 nM in assay [3] (setting [6]), 1000 to 3000 nM in assay [4] and less than 10 nM in assay [5].
As for `COCCOc1cc(Nc2nc(N[C@@H](CN)CC(C)C)c(F)cc2C(N)=O)ccn1` [Example 006-157, (R)-6-((1-amino-4-methylpentan-2-yl)amino)-5-fluoro-2-((2-(2-methoxyethoxy)pyridin-4-yl)amino)nicotinamide], the values for the IC50 in assay [3] (setting [6]), in assay [4] and in assay [5] were 65 to 130 nM, less than 1000 nM and less than 10 nM, respectively.
For `CC(=O)Nc1cccc2cc(Nc3nc(N[C@@H]4CCCC[C@@H]4N)c(F)cc3C(N)=O)cnc12` [Example 004-008], in that order: less than 65 nM, less than 1000 nM and less than 10 nM.
The like results for `CCOc1nccc(Nc2nc(N[C@@H]3CCCC[C@@H]3N)c(F)cc2C(N)=O)c1F` [Example 006-433, 6-(((1R,2S)-2-aminocyclohexyl)amino)-2-((2-ethoxy-3-fluoropyridin-4-yl)amino)-5-fluoronicotinamide] were, in that order, 65 to 130 nM, 1000 to 3000 nM and less than 10 nM.
With `CC[C@@H](Nc1nc(Nc2cncc(-c3cccc(OC)c3F)c2)c(C(N)=O)cc1F)[C@H](C)N` [Example 006-278, 6-(((2S,3R)-2-aminopentan-3-yl)amino)-5-fluoro-2-((5-(2-fluoro-3-methoxyphenyl)pyridin-3-yl)amino)nicotinamide], the IC50 was less than 65 nM in assay [3] (setting [6]), 1000 to 3000 nM in assay [4] and less than 10 nM in assay [5].
For `Cn1ccc2c(Nc3nc(N[C@@H]4CCCC[C@@H]4N)c(F)cc3C(N)=O)ccnc21` [Example 004-013], in that order: less than 65 nM, 1000 to 3000 nM and less than 10 nM.
The like results for `C[C@H](N)[C@H](Nc1nc(Nc2ccc3ncccc3c2)c(C(N)=O)cc1F)C1CC1` [Example 006-368, 6-(((1R,2S)-2-amino-1-cyclopropylpropyl)amino)-5-fluoro-2-((quinolin-6-yl)amino)nicotinamide] were, in that order, less than 65 nM, less than 1000 nM and less than 10 nM.
The like results for `NC(=O)c1cc(F)c(N[C@@H]2CCCC[C@@H]2N)nc1Nc1cc(F)c2[nH]ccc2c1` (relative stereo) [Example 004-079, 6-(cis-2-aminocyclohexylamino)-5-fluoro-2-((7-fluoro-1H-indol-5-yl)amino)nicotinamide] were, in that order, less than 65 nM, 1000 to 3000 nM and less than 10 nM.
Take `Cc1ncc(Nc2nc(N[C@@H]3CCCC[C@@H]3N)c(F)cc2C(N)=O)cc1-c1ccco1` [Example 006-376, 6-(((1R,2S)-2-aminocyclohexyl)amino)-5-fluoro-2-((5-(furan-2-yl)-6-methylpyridin-3-yl)amino)nicotinamide]: the IC50 is less than 65 nM in assay [3] (setting [6]), 1000 to 3000 nM in assay [4] and less than 10 nM in assay [5].
As for `CC(C)C[C@@H](Nc1nc(Nc2ccc3c(cnn3C)c2)c(C(N)=O)cc1F)[C@H](C)N` [Example 006-383, 6-(((2S,3R)-2-amino-5-methylhexan-3-yl)amino)-5-fluoro-2-((1-methyl-1H-indazol-5-yl)amino)nicotinamide], the values for the IC50 in assay [3] (setting [6]), in assay [4] and in assay [5] were less than 65 nM, 1000 to 3000 nM and less than 10 nM, respectively.
`CCC[C@@H](Nc1nc(Nc2ccnc(OC)c2)c(C(N)=O)cc1F)[C@H](C)N` [Example 6-249, 6-(((2S,3R)-2-aminohexane-3-yl)amino)-5-fluoro-2-((2-methoxypyridin-4-yl)amino)nicotinamide]: the inhibition in vivo at 10 mg/kg/day in assay [1] is no less than 85%.
With `NC(=O)c1cc(F)c(N[C@@H](C(N)=O)c2ccccc2)nc1Nc1ccc2ncccc2c1` [Example 012-008], the IC50 was 65 to 130 nM in assay [3] (setting [6]), 1000 to 3000 nM in assay [4] and 10 to 50 nM in assay [5].
`Cc1ccc(Nc2nc(N[C@@H]3CCCC[C@@H]3N)c(F)cc2C(N)=O)cn1` [Example 004-017]: the IC50 was 65 to 130 nM in assay [3] (THP-1 cells), 3000 to 6000 nM in assay [4] and 10 to 50 nM in assay [5].
On to `Cc1ncc(Nc2nc(NC3CCCCC3N)c(F)cc2C(N)=O)cc1-n1nccn1` (stereo not shown) [Example 002-134], for which the values for the IC50 in assay [3] (setting [6]), in assay [4] and in assay [5] were 65 to 130 nM, 1000 to 3000 nM and less than 10 nM, respectively.
The like results for `CCC[C@@H](Nc1nc(Nc2cncc(F)c2)c(C(N)=O)cc1F)[C@H](C)N` [Example 006-301, 6-(((2S,3R)-2-aminohexan-3-yl)amino)-5-fluoro-2-((5-fluoropyridin-3-yl)amino)nicotinamide] were, in that order, 65 to 130 nM, 1000 to 3000 nM and 10 to 50 nM.
Take `CC[C@@H](Nc1nc(Nc2cncc(-c3ccccc3F)c2)c(C(N)=O)cc1F)[C@H](C)N` [Example 006-257, 6-(((2S,3R)-2-aminopentan-3-yl)amino)-5-fluoro-2-((5-(2-fluorophenyl)pyridin-3-yl)amino)nicotinamide]: the IC50 in assay [3] (setting [6]) was less than 65 nM; in assay [4], 1000 to 3000 nM; in assay [5] it was less than 10 nM.
